Results: patent US20250230193A1, “CYCLIC COMPOUND HAVING SELECTIVE KRAS INHIBITORY EFFECT ON HRAS AND NRAS” (CHUGAI SEIYAKU KABUSHIKI KAISHA, priority 2022, published 2025)
Where two headings read alike, the source gives them in different places.

Legend:
[1] = target: GDP-bound NRAS wild-type protein (Homo sapiens, UniProt P01111); assay: Binding to NRAS by surface plasmon resonance (SPR), Single Cycle Kinetics; settings: SPR; for NRAS/KRAS (ratio of KD value for GDP-bound NRAS wild-type protein to KD value for KRAS): KD ratio class
Sequence of GDP-bound NRAS wild-type protein (P01111 whole entry): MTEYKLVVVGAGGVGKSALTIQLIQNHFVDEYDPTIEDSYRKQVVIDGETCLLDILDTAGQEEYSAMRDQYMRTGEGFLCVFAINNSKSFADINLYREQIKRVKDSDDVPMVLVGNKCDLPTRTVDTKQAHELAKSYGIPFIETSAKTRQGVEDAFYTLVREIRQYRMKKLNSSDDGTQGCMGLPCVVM

[2] = system: human lung cancer strain NCI-H441
[3] = target: GDP-bound HRAS wild-type protein (Homo sapiens, UniProt P01112); assay: Binding to HRAS by surface plasmon resonance (SPR), Single Cycle Kinetics; settings: SPR; for HRAS/KRAS (ratio of KD value for GDP-bound HRAS wild-type protein to KD value for KRAS): KD ratio class
Sequence of GDP-bound HRAS wild-type protein (P01112 whole entry): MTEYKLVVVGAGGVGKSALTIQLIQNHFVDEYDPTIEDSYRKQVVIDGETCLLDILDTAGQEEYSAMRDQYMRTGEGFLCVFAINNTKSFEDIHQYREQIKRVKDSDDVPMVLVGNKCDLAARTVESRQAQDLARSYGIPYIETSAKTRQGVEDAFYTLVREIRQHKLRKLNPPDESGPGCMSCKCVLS

[4] = target: GDP-bound KRAS wild-type protein (Homo sapiens, UniProt P01116); assay: Binding to KRAS by surface plasmon resonance (SPR), Single Cycle Kinetics; settings: GDP-bound KRAS wild-type protein
[5] = read-out: NCI-H441 IC50, NCI-H441 cells, 4 days, CellTiter-Glo
[6] = SPR Single Cycle Kinetics, 1:1 binding model

Row | SMILES | NRAS/KRAS (ratio of KD value for GDP-bound NRAS wild-type protein to KD value for KRAS) [1] | IC50 [2, 5] [nM] | HRAS/KRAS (ratio of KD value for GDP-bound HRAS wild-type protein to KD value for KRAS) [3] | Kd ([4]; SPR, Single Cycle Kinetics) [nM] | NRAS/KRAS (ratio of KD value with respect to GDP-bound NRAS wild-type protein to KD value with respect to KRAS) [1] | IC50 [2] [nM] | HRAS/KRAS (ratio of KD value with respect to GDP-bound HRAS wild-type protein to KD value with respect to KRAS) [3] | Kd [4, 6] [nM] | NRAS/KRAS (ratio of KD value with respect to NRAS to KD value with respect to KRAS) ([1]; KD ratio, GDP-bound NRAS wild-type vs GDP-bound KRAS wild-type) | HRAS/KRAS (ratio of KD value with respect to HRAS to KD value with respect to KRAS) ([3]; KD ratio, GDP-bound HRAS wild-type vs GDP-bound KRAS wild-type)
1 | CCO[C@@H]1C[C@H]2C(=O)NC3(CCC3)C(=O)N(C)[C@@H](C3CCCC3)C(=O)N(C)[C@H](C(=O)N(C)C)CC(=O)N(C)[C@@H](CC3CC3)C(=O)N[C@@H]([C@@H](C)CC)C(=O)N(C)CC(=O)N(C)[C@H]3C/C=C\CCN(C3=O)[C@@H](Cc3ccc(C)cc3)C(=O)N(C)CC(=O)N[C@@H](CCc3cc(F)c(C(F)(F)F)c(F)c3)C(=O)N2C1 [PP1407] | A (a compound having 10 or more and less than 20 is denoted as A) | 18.7 | A (a compound having 10 or more and less than 20 is denoted as A) | 0.074 |  |  |  |  |  | 
2 | CC[C@H](C)[C@@H]1NC(=O)[C@H](CC(C)C)N(C)C(=O)C[C@@H](C(=O)N(C)C)N(C)C(=O)[C@H](C2CCCC2)N(C)C(=O)C2(CCCC2)NC(=O)[C@@H]2CCCN2C(=O)[C@H](CCc2ccc(C(F)(F)F)c(Cl)c2)NC(=O)CN(C)C(=O)[C@H](Cc2ccc(C(F)(F)F)cc2)N2C/C=C\COC[C@@H](C2=O)N(C)C(=O)CN(C)C1=O [PP0626] |  |  |  |  | C (A compound having a KD ratio of 0.1 or more and less than 3 is denoted as C) | 158 | C (A compound having a KD ratio of 0.1 or more and less than 3 is denoted as C) | 7.1 |  | 
3 | CC[C@H](C)[C@@H]1NC(=O)[C@H](CC)N(C)C(=O)C[C@@H](C(=O)N(C)C)N(C)C(=O)[C@H](C2CCCC2)N(C)C(=O)C2(CCC2)NC(=O)[C@@H]2C[C@H](C)CN2C(=O)[C@H](CCc2cc(F)c(C(F)(F)F)c(F)c2)NC(=O)CN(C)C(=O)[C@H](CC2CCC(F)(F)CC2)N2CC/C=C\C[C@@H](C2=O)N(C)C(=O)CN(C)C1=O [PP1457] | A (a compound having 10 or more and less than 20 is denoted as A) | 30.4 | A (a compound having 10 or more and less than 20 is denoted as A) | 0.15 |  |  |  |  |  | 
4 | CCO[C@@H]1C[C@H]2C(=O)NC3(CCC3)C(=O)N(C)[C@@H](C3CCCC3)C(=O)N(C)[C@H](C(=O)N(C)C)CC(=O)N(C)[C@@H](CC)C(=O)N[C@@H]([C@@H](C)CC)C(=O)N(C)CC(=O)N(C)[C@H]3C/C=C\CCN(C3=O)[C@@H](CC3CCCCC3)C(=O)N(C)CC(=O)N[C@@H](CCc3cc(F)c(C(F)(F)F)c(F)c3)C(=O)N2C1 [PP1466] | A (a compound having 10 or more and less than 20 is denoted as A) | 33.2 | A (a compound having 10 or more and less than 20 is denoted as A) | 0.14 |  |  |  |  |  | 
5 | CCC[C@H]1C(=O)N[C@@H]([C@@H](C)CC)C(=O)N(C)CC(=O)N(C)[C@H]2C/C=C\CCN(C2=O)[C@@H](CC2CCCCC2)C(=O)N(C)CC(=O)N[C@@H](CCc2cc(F)c(C(F)(F)F)c(F)c2)C(=O)N2C[C@H](OCC)C[C@H]2C(=O)NC2(CCC2)C(=O)N(C)[C@@H](C2CCCC2)C(=O)N(C)[C@H](C(=O)N(C)C)CC(=O)N1C [PP1464] | A (a compound having 10 or more and less than 20 is denoted as A) | 32.3 | A (a compound having 10 or more and less than 20 is denoted as A) | 0.15 |  |  |  |  |  | 
6 | CCO[C@@H]1C[C@H]2C(=O)NC3(CCC3)C(=O)N(C)[C@@H](C3CCCC3)C(=O)N(C)[C@H](C(=O)N(C)C)CC(=O)N(C)[C@@H](CC(C)C)C(=O)N[C@@H]([C@@H](C)CC)C(=O)N(C)CC(=O)N(C)[C@H]3C/C=C\CCN(C3=O)[C@@H](Cc3ccc(C(F)(F)F)cc3)C(=O)N(C)CC(=O)N[C@@H](CCc3ccc(C(F)(F)F)c(OC)c3)C(=O)N2C1 [PP1245] | A (a compound having 10 or more and less than 20 is denoted as A) | 3.7 | B (a compound having 3 or more and less than 10 is denoted as B) | 0.06 |  |  |  |  |  | 
7 | CC[C@H](C)[C@@H]1NC(=O)[C@H](CC)N(C)C(=O)C[C@@H](C(=O)N(C)C)N(C)C(=O)[C@H](C2CCCC2)N(C)C(=O)C2(CCC2)NC(=O)[C@@H]2CC(F)(F)CN2C(=O)[C@H](CCc2cc(F)c(C(F)(F)F)c(F)c2)NC(=O)CN(C)C(=O)[C@H](CC2CCCCC2)N2CC/C=C\C[C@@H](C2=O)N(C)C(=O)CN(C)C1=O [PP1462] | A (a compound having 10 or more and less than 20 is denoted as A) | 27.5 | A (a compound having 10 or more and less than 20 is denoted as A) | 0.12 |  |  |  |  |  | 
8 | CCC[C@H]1C(=O)N[C@@H]([C@@H](C)CC)C(=O)N(C)CC(=O)N(C)[C@H]2C/C=C\CCN(C2=O)[C@@H](Cc2ccc(C(F)(F)F)cc2)C(=O)N(C)CC(=O)N[C@@H](CCc2cc(F)c(C(F)(F)F)c(F)c2)C(=O)N2C[C@H](OCC)C[C@H]2C(=O)NC2(CCC2)C(=O)N(C)[C@@H](C2CCCC2)C(=O)N(C)[C@H](C(=O)N2CCCC2)CC(=O)N1C [PP1299] | A (a compound having 10 or more and less than 20 is denoted as A) | 11 | A (a compound having 10 or more and less than 20 is denoted as A) | 0.14 |  |  |  |  |  | 
9 | CCO[C@@H]1C[C@H]2C(=O)NC3(CCC3)C(=O)N(C)[C@@H](C3CCCC3)C(=O)N(CC)[C@H](C(=O)N3CCOCC3)CC(=O)N(C)[C@@H](CC)C(=O)N[C@@H]([C@@H](C)CC)C(=O)N(C)CC(=O)N(C)[C@H]3CCCCCN(C3=O)[C@@H](Cc3ccc(F)cc3)C(=O)N(C)CC(=O)N[C@@H](CCc3cc(F)c(C(F)(F)F)c(F)c3)C(=O)N2C1 [PP0905] |  |  |  | 0.79 |  | 92 |  |  | B (a compound having 3 or more and less than 10 is denoted as B) | B (a compound having 3 or more and less than 10 is denoted as B)
10 | CCCCCC[C@H]1C(=O)N[C@@H]([C@@H](C)CC)C(=O)N(C)CC(=O)N(C)[C@H]2C/C=C\CCN(C2=O)[C@@H](Cc2ccc(C(F)(F)F)cc2)C(=O)N(C)CC(=O)N[C@@H](CCc2ccc(C(F)(F)F)c(OC)c2)C(=O)N2C[C@H](OCC)C[C@H]2C(=O)NC2(CCC2)C(=O)N(C)[C@@H](C2CCCC2)C(=O)N(C)[C@H](C(=O)N(C)C)CC(=O)N1C [PP1246] | A (a compound having 10 or more and less than 20 is denoted as A) | 9 | A (a compound having 10 or more and less than 20 is denoted as A) | 0.081 |  |  |  |  |  | 
11 | CCO[C@@H]1C[C@H]2C(=O)NC3(CCC3)C(=O)N(C)[C@@H](C3CCCC3)C(=O)N(C)[C@H](C(=O)N(C)C)CC(=O)N(C)[C@@H](CC(C)C)C(=O)N[C@@H]([C@@H](C)CC)C(=O)N(C)CC(=O)N(C)[C@H]3C/C=C\CCN(C3=O)[C@@H](Cc3ccc(F)cc3)C(=O)N(C)CC(=O)N[C@@H](CCc3cc(F)c(C(F)(F)F)c(F)c3)C(=O)N2C1 [PP1488] | A (a compound having 10 or more and less than 20 is denoted as A) | 23.2 | B (a compound having 3 or more and less than 10 is denoted as B) | 0.081 |  |  |  |  |  | 
12 | CCO[C@@H]1C[C@H]2C(=O)NC3(CCCC3)C(=O)N(C)[C@@H](C3CCCC3)C(=O)N(C)[C@H](C(=O)N(C)C)CC(=O)N(C)[C@@H](C)C(=O)N[C@@H]([C@@H](C)CC)C(=O)N(C)CC(=O)N(C)[C@H]3C/C=C\CCN(C3=O)[C@@H](CC3CCC(F)(F)CC3)C(=O)N(C)CC(=O)N[C@@H](CCc3cc(F)c(C(F)(F)F)c(F)c3)C(=O)N2C1 [PP1456] | A (a compound having 10 or more and less than 20 is denoted as A) | 90 | A (a compound having 10 or more and less than 20 is denoted as A) | 0.12 |  |  |  |  |  | 
13 | CC[C@H](C)[C@@H]1NC(=O)[C@H](CC(C)C)N(C)C(=O)C[C@@H](C(=O)N(C)C)N(C)C(=O)[C@H](C2CCCC2)N(C)C(=O)C2(CCCC2)NC(=O)[C@@H]2CCCN2C(=O)[C@H](CCc2ccc(C(F)(F)F)c(Cl)c2)NC(=O)CN(C)C(=O)[C@H](Cc2ccc(C(F)(F)F)cc2)N2CC=C(C)C[C@@H](C2=O)N(C)C(=O)CN(C)C1=O [PP0621] |  |  |  |  | C (A compound having a KD ratio of 0.1 or more and less than 3 is denoted as C) | 83.6 | C (A compound having a KD ratio of 0.1 or more and less than 3 is denoted as C) | 2.4 |  | 
14 | CCC[C@H]1C(=O)N[C@@H]([C@@H](C)CC)C(=O)N(C)CC(=O)N(C)[C@H]2C/C=C\CCN(C2=O)[C@@H](CC2CCC(F)(F)CC2)C(=O)N(C)CC(=O)N[C@@H](CCc2cc(F)c(C(F)(F)F)c(F)c2)C(=O)N2C[C@H](OCC)C[C@H]2C(=O)NC2(CCC2)C(=O)N(C)[C@@H](C2CCCC2)C(=O)N(C)[C@H](C(=O)N(C)C)CC(=O)N1C [PP1450] | A (a compound having 10 or more and less than 20 is denoted as A) | 50.1 | A (a compound having 10 or more and less than 20 is denoted as A) | 0.14 |  |  |  |  |  | 
